Key:
[1] = Lipid peroxidation inhibitory activity, ferric thiocyanate method; type: biochemical; settings: 60 μg/ml; OD 500 nm; 24 hours incubation 37° C.
Method: Microbial zeaxanthin was dissolved in 0.2 M potassium phosphate buffer and mixed with linoleic acid emulsion mixture prepared by potassium phosphate buffer. After 24 hours incubation in 37° C., the mixture was added with 75% ethanol, ammonium thiocyanate, and iron(II) chloroide tetrahydrate. The absorbance at 500 nm was determined after 1 min incubation. Inhibtion activity=[1−(Abs of sample/Abs of blank)]*100%.

[2] = Lipid peroxidation inhibitory activity, conjugated diene method; type: biochemical; settings: 30 μg/ml; OD 234 nm; 15 hour incubation 37° C.
Method: Microbial zeaxanthin was dissolved in 0.2 M potassium phosphate buffer and mixed with linoleic acid emulsion mixture prepared by potassium phosphate buffer. The absorbance of 234 nm was determined after 15 hour incubation in 37° C. Inhibition activity=[1−(Abs of sample/Abs of blank)]*100%.

[3] = system: Human skin fibroblast cells (CCD-966SK cell line); assay: Photoprotection activity: viability of UV-irradiated human skin fibroblast cells; type: cell-based; settings: 15 min UV irradiation, determined at 24 hours
Method: Human skin fibroblast cells (CCD-966SK cell line) were cultured on the dish. The cells were treated with microbial zeaxanthin dissolved in dimethyl sulfoxide. After treated for 24 hours the dishes were irradiated UV for 15 min and the cells were incubated for 24 hours. The cells were detached by trypsin and counted by hemocytometer. The protection effect of microbial zeaxanthin on the viability of fibroblast cells is provided (FIG. 3).
Skin fibroblast cells, the essential cells of skin, are responsible for the production of collagen, a structural component of the skin (Stanley et al., (1985) J Invest Dermatol. 85:542-545; Olsen et al., (1989) J. Clin. Invest. 83: 791-795; Akagi et al., (1999) J. Invest. Dermatol. 113: 246-250). Collagen reduction is a biological phenomenon responsible for the wrinkled appearance found in the aged skin caused either intrinsic (chronologic aging) or extrinsic (e.g., photoaging: exposure to UV irradiation) (Burke et al., (1994) Exp Gerontol 29:37-53; Fisher et al., (1997) New Eng J Med 337:1419-1428; Fligiel et al., (2003) J Invest Dermatol. 120:842-848; Varani et al., (2006) Am J Pathol. 168:1861-8; Chauhan and Shakya, (2009) Indian J Dermatol Venereol Leprol. 75:463-8). […]

[4] = Lipid peroxidation inhibitory activity, liposome-TBARS method; type: biochemical; settings: OD 532 nm
Method: Microbial zeaxanthin was dissolved in methanol and mixed with liposome emulsion, iron(III) chloride, and ascorbic acid. After 2 hours water bath in 37° C. the mixture was added with butylated hydorxytoluene, thibarbituric acid, and trichloroacetic acid. After 20 min of water bath (100° C.), the mixture was chilled with ice. The absorbance at 532 nm was determined. MDA (malondialdehyde) inhibiton activity=[1−(Abs of sample/Abs of blank)]*100%.

[5] = Antioxidant activity, DPPH free radical scavenging method; type: biochemical; settings: OD 517 nm
Method: Microbial zeaxanthin was dissolved in methanol and mixed with 2,2-diphenyl-1-picrylhydrazyl in methanol. The absorbance at 517 nm was determined after 30 min incubation. Inhibition activity=[1−(Abs of sample/Abs of blank)]*100%.

[6] = Total antioxidant activity, TEAC (trolox equivalent antioxidant capacity) method; type: biochemical; settings: OD 734 nm
Method: Microbial zeaxanthin was dissolved in 0.01M sodium phosphate buffer and mixed with 2,2′-azino-bis(3-ethylbenzthiazoline-6-sulphonic acid) containing potassium persulfate. The absorbance at 734 nm was determined after 30 min incubation. Inhibition activity=[1−(Abs of sample/Abs of blank)]*100%.

[7] = cited from earlier work
B16/F10 melanoma cells = assay: Melanin content in melanoma cells; type: cell-based; settings: Mus musculus, OD 400 nm; for inhibition at 2 µg/mL: 2 μg/ml; for inhibition at 20 µg/mL: 20 μg/ml
Method: B16 F0 mouse melanoma cells were cultured on the dish. The cells were treated with microbial zeaxanthin dissolved in dimethyl sulfoxide. After treated for 24 hrs and 48 hrs, respectively, the medium was removed and the cells were washed with PBS and then dissolved in 1 N NaOH containing 10% DMSO. The relative melanin content was determined at OD400 nm.

Question: Which results are given for CC1=C[C@H](O)CC(C)(C)[C@H]1/C=C/C(C)=C/C=C/C(C)=C/C=C/C=C(C)/C=C/C=C(C)/C=C/C1=C(C)C[C@@H](O)CC1(C)C [lutein, reference compound]?
Answer: lipid peroxidation inhibitory activity (ferric thiocyanate method) [1]: 68.6%; lipid peroxidation inhibitory activity (conjugated diene method) [2]: 68.7%

Question: Which results are given for CC1=C(/C=C/C(C)=C/C=C/C(C)=C/C=C/C=C(C)/C=C/C=C(C)/C=C/C2=C(C)C[C@@H](O)CC2(C)C)C(C)(C)C[C@H](O)C1 [microbial zeaxanthin, 4-[18-(4-hydroxy-2,6,6-trimethyl-1-cyclohexenyl)-3,7,12,16-tetramethyl-octadeca-1,3,5,7,9,11,13,15,17-nonaenyl]-3,5,5-trimethyl-cyclohex-3-en-1-ol]?
Answer: cell viability increased as compared to no zeaxanthin treatment ([3]; 20 μg/ml): 18.9%; cell viability increased as compared to no zeaxanthin treatment ([3]; 50 μg/ml): 33.7%; lipid peroxidation inhibitory activity (ferric thiocyanate method) [1]: 66.9%; inhibition on free MDA formation ([4]; 125 μg/ml): 55.23%; inhibition on free MDA formation ([4]; 250 μg/ml): 61.05%; inhibition on free MDA formation ([4]; 500 μg/ml): 71.16%; inhibition on free MDA formation ([4]; 1000 μg/ml): 78.45%; inhibition on free MDA formation ([4]; 2000 μg/ml): 80.75%; inhibition on absorbance (DPPH) ([5]; 62.5 μg/ml): 10.02%; inhibition on absorbance (DPPH) ([5]; 125 μg/ml): 13.04%; inhibition on absorbance (DPPH) ([5]; 250 μg/ml): 30.18%; inhibition on absorbance (DPPH) ([5]; 500 μg/ml): 48.20%; inhibition on absorbance (DPPH) ([5]; 1000 μg/ml): 96.69%; inhibition on absorbance (TEAC) ([6]; 62.5 μg/ml): 15.68%; inhibition on absorbance (TEAC) ([6]; 125 μg/ml): 28.13%; inhibition on absorbance (TEAC) ([6]; 250 μg/ml): 53.35%; inhibition on absorbance (TEAC) ([6]; 500 μg/ml): 91.22%; lipid peroxidation inhibitory activity (conjugated diene method) [2]: 67.4%; Solubility in chloroform ([7]; chloroform): soluble giving a clear intensive orange-red; Solubility in ethanol ([7]; ethanol): sparingly; Solubility in water ([7]; water): insoluble; inhibition at 2 µg/mL (B16/F10 melanoma cells; 24 hrs): 6.74%; inhibition at 2 µg/mL (B16/F10 melanoma cells; 48 hrs): 32.5%; inhibition at 20 µg/mL (B16/F10 melanoma cells; 24 hrs): 22.7%; inhibition at 20 µg/mL (B16/F10 melanoma cells; 48 hrs): 36.7%

Reference: US20120095108A1, “COMPOSITION CONTAINING MICROBIAL ZEAXANTHIN AND PREPARATION THEREOF” (Vigenent Inc., priority 2010, published 2012)
